Experimental data published in patent publication US7553966B2, “Glucocorticoid mimetics, methods of making them, pharmaceutical compositions, and uses thereof” (Boehringer Ingelheim Pharmaceuticals, Inc., priority 2002, dated 2009).

Columns and labels:
glucocorticoid receptor = assay: Glucocorticoid Receptor Cell Assays (agonist activity in one or more of the above assays); format: cell-based; conditions: qualitative statement; assay not specified
Procedure: B. Glucocorticoid Receptor Cell Assays
1. Induction of Aromatase in Fibroblasts (Cell Assay for Transactivation)
Dexamethasone, a synthetic ligand to the glucocorticoid receptor (GR), induces expression of aromatase in human foreskin fibroblast cells. The activity of aromatase is measured by the conversion of testosterone to estradiol in culture media.
On the day of the experiment, the media in the wells is replaced with fresh media. Cells are treated with test compounds to final concentrations of 10^−5 M to 10^−8 M, and testosterone to a final concentration of 300 ng/mL. Each well has a total volume of 100 μL. Samples are made in duplicates. Control wells include: (a) wells that receive testosterone only, and (b) wells that receive testosterone plus 2 μM of dexamethasone to provide maximum induction of aromatase. Plates are incubated at 37° C. overnight (15 to 18 hours), and supernatants are harvested at the end of incubation. […] The amount of estradiol is inversely proportional to the ELISA signals in each well. The extent of aromatase induction by test compounds is expressed as a relative percentage to dexamethasone. EC50 values of test compounds are derived by non-linear curve fitting.
2. Inhibition of IL-6 Production in Fibroblasts (Cell Assay for Transrepression)
Human foreskin fibroblast cells produce IL-6 in response to stimulation by pro-inflammatory cytokine IL-1.
On the next day, media in the wells is replaced with fresh media. Cells are treated with IL-1 (rhIL-1α, R&D Systems Cat. No. 200-LA) to a final concentration of 1 ng/mL, and with test compounds to final concentrations of 10^−5 M to 10^−8 M, in a total volume of 200 μL per well. Samples are done in duplicates. […] Positive control wells receive IL-1 only and represent maximum (or 100%) amount of IL-6 production. Plates are incubated at 37° C. overnight (15 to 18 hours), and supernatants are harvested at the end of incubation. IL-6 levels in the supernatants are determined by the ELISA kits for IL-6 (MedSystems Diagnostics GmbH, Vienna, Austria, Cat. No. BMS213TEN) according to manufacture's instructions. The extent of inhibition of IL-6 by test compounds is expressed in percentage relative to positive controls. IC50 values of test compounds are derived by non-linear curve fitting.
Evaluation of agonist or antagonist activity of compounds binding to the glucocorticoid receptor may be determined by any of the assays.
3. Modulation of Tyrosine Aminotransferase (TAT) Induction in Rat Hepatoma Cells
Testing of compounds for agonist or antagonist activity in induction of tyrosine aminotransferase (TAT) in rat hepatoma cells.
H4-II-E-C3 cells were incubated overnight in 96 well plates (20,000 cells/100 μL/well) in MEM medium containing 10% heat inactivated FBS and 1% nonessential amino acids. On the next day, cells were stimulated with the indicated concentrations of dexamethasone or test compound (dissolved in DMSO, final DMSO concentration 0.2%) for 18 hours. Control cells were treated with 0.2% DMSO. After 18 hours, the cells were lysed in a buffer containing 0.1% Triton X-100 and the TAT activity was measured in a photometric assay using tyrosine and alpha-ketoglutarate as substrates.
For measuring antagonist activity, the hepatoma cells were pre-stimulated by addition of dexamethasone (concentration ranges from 3×10^−9 M to 3×10^−8 M) shortly before the test compound was applied to the cells.
4. Modulation of MMTV-Luc Induction in HeLa Cells
Testing of compounds for agonist or antagonist activity in stimulation of MMTV-(mouse mammary tumor virus) promoter in HeLa cells.
Cells were cultured overnight in DMEM medium without phenol red, supplemented with 3% CCS (charcoal treated calf serum) and then transferred to 96 well plates (15,000 cells/100 μL/well).

[1] = biological target: T1, human glucocorticoid receptor (GR) complex (Homo sapiens, UniProt P04150); assay: Glucocorticoid Receptor Competitive Binding Assay (fluorescence polarization, TAMRA-labeled dexamethasone probe); conditions: qualitative statement; competition with TAMRA-labeled dexamethasone
T1 construct: made in house; host or cells: insect expression system (baculovirus lysate)
T1 sequence (P04150 1-777): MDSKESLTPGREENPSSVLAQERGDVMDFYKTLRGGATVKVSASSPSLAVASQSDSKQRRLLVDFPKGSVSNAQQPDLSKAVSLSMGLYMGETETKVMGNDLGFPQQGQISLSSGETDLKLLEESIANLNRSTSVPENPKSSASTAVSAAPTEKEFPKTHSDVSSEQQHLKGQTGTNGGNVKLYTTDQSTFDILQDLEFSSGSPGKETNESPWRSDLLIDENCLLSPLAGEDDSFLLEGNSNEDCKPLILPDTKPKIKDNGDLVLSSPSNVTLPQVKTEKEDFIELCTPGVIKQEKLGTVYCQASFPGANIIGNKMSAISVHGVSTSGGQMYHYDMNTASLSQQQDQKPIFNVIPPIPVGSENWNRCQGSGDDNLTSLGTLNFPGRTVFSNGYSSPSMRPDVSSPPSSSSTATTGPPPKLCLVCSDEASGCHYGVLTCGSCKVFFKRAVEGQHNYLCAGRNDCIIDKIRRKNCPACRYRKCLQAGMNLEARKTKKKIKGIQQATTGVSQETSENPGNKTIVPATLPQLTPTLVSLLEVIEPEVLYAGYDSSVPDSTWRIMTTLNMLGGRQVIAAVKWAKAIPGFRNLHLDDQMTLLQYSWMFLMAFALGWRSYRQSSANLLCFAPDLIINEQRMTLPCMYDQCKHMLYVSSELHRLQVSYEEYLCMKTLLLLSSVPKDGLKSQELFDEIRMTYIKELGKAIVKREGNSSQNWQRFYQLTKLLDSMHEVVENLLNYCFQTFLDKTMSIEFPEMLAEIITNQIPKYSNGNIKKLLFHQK
In short: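 Competition with TAMRA-dexamethasone for a human GR complex expressed in insect cells, read by fluorescence polarization. Buffer was 10 mM TES, 50 mM KCl, 20 mM Na2MoO4, 1.5 mM EDTA, 0.04% CHAPS, 10% glycerol, 1 mM DTT, pH 7.4.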

SMILES | activity as agonists of the glucocorticoid receptor function in one or more of the above assays (glucocorticoid receptor) | activity in the GR binding assay [1]
COc1ccc(Br)cc1C(C)(C)CC(O)(Cc1cc2c(C)cc(C#N)cc2[nH]1)C(F)(F)F (centres unmarked) | potent agonists | 
COc1ccccc1C(C)(C)CC(O)(Cc1cc2ccccc2[nH]1)C(F)(F)F (centres unmarked) [1,1,1-Trifluoro-2-(1H-indol-2-ylmethyl)-4-(2-methoxyphenyl)-4-methylpentan-2-ol] | potent agonists | potent activity
CC(C)(CC(O)(Cc1cc2ccccc2[nH]1)C(F)(F)F)c1cccc(C(F)(F)F)c1 (centres unmarked) [1,1,1-Trifluoro-2-(1H-indol-2-ylmethyl)-4-methyl-4-(3-trifluoromethylphenyl)pentan-2-ol] | potent agonists | potent activity
Cc1cc2c(c(C(C)(C)CC(O)(Cc3cc4ccccc4[nH]3)C(F)(F)F)c1)OCC2 (centres unmarked) [1,1,1-Trifluoro-2-(1H-indol-2-ylmethyl)-4-methyl-4-(5-methyl-2,3-dihydrobenzofuran-7-yl)pentan-2-ol] | potent agonists | potent activity
Cc1cccc(C(C)(C)CC(O)(Cc2cc3ccccc3[nH]2)C(F)(F)F)c1 (centres unmarked) [1,1,1-Trifluoro-2-(1H-indol-2-ylmethyl)-4-methyl-4-m-tolylpentan-2-ol] | potent agonists | potent activity
Cc1ccccc1C(C)(C)CC(O)(Cc1cc2ccccc2[nH]1)C(F)(F)F (centres unmarked) [1,1,1-Trifluoro-2-(1H-indol-2-ylmethyl)-4-methyl-4-o-tolylpentan-2-ol] | potent agonists | potent activity
COc1ccc(F)cc1C(C)(C)CC(O)(Cc1cc2cccc(F)c2[nH]1)C(F)(F)F (centres unmarked) [1,1,1-Trifluoro-2-(7-fluoro-1H-indol-2-ylmethyl)-4-(5-fluoro-2-methoxyphenyl)-4-methylpentan-2-ol] | potent agonists | potent activity
COc1ccccc1C(C)(C)CC(O)(Cc1ccnc2ccccc12)C(F)(F)F (centres unmarked) [1,1,1-Trifluoro-4-(2-methoxyphenyl)-4-methyl-2-quinolin-4-ylmethylpentan-2-ol] | potent agonists | potent activity
Cc1cccc2[nH]c(CC(O)(CC(C)(C)c3cccc(F)c3)C(F)(F)F)cc12 (centres unmarked) [1,1,1-Trifluoro-4-(3-fluorophenyl)-4-methyl-2-(4-methyl-1H-indol-2-ylmethyl)pentan-2-ol] | potent agonists | potent activity
COc1cccc(C(C)(C)CC(O)(Cc2ccnc3ccccc23)C(F)(F)F)c1 (centres unmarked) [1,1,1-Trifluoro-4-(3-methoxyphenyl)-4-methyl-2-quinolin-4-ylmethylpentan-2-ol] | potent agonists | potent activity
COc1cc(F)ccc1C(C)(C)CC(O)(Cc1cc2ccccc2[nH]1)C(F)(F)F (centres unmarked) [1,1,1-Trifluoro-4-(4-fluoro-2-methoxyphenyl)-2-(1H-indol-2-ylmethyl)-4-methylpentan-2-ol] | potent agonists | potent activity
COc1cc(F)ccc1C(C)(C)CC(O)(Cc1cc2ccncc2[nH]1)C(F)(F)F (centres unmarked) [1,1,1-Trifluoro-4-(4-fluoro-2-methoxyphenyl)-4-methyl-2-(1H-pyrrolo[2,3-c]pyridin-2-ylmethyl)pentan-2-ol] | potent agonists | potent activity
COc1cc(F)ccc1C(C)(C)CC(O)(Cc1cc2cnccc2[nH]1)C(F)(F)F (centres unmarked) [1,1,1-Trifluoro-4-(4-fluoro-2-methoxyphenyl)-4-methyl-2-(1H-pyrrolo[3,2-c]pyridin-2-ylmethyl)pentan-2-ol] | potent agonists | potent activity
COc1cc(F)ccc1C(C)(C)CC(O)(Cc1ccnc2c1CCCC2)C(F)(F)F (centres unmarked) [1,1,1-Trifluoro-4-(4-fluoro-2-methoxyphenyl)-4-methyl-2-(5,6,7,8-tetrahydroquinolin-4-ylmethyl)pentan-2-ol] | potent agonists | potent activity
COc1cc(F)ccc1C(C)(C)CC(O)(Cc1ccnc2ccccc12)C(F)(F)F (centres unmarked) [1,1,1-Trifluoro-4-(4-fluoro-2-methoxyphenyl)-4-methyl-2-quinolin-4-ylmethylpentan-2-ol] | potent agonists | potent activity
Cc1ccc(F)cc1C(C)(C)CC(O)(Cc1cc2ccncc2[nH]1)C(F)(F)F (centres unmarked) [1,1,1-Trifluoro-4-(5-fluoro-2-methylphenyl)-4-methyl-2-(1H-pyrrolo[2,3-c]pyridin-2-ylmethyl)pentan-2-ol] | potent agonists | 
COc1ccc(F)cc1C(C)(C)CC(O)(Cc1cc2ccccc2[nH]1)C1CC1 (centres unmarked) [2-Cyclopropyl-4-(5-fluoro-2-methoxyphenyl)-1-(1H-indol-2-yl)-4-methylpentan-2-ol] | agonists | 
CC(C)(CC(O)(Cc1[nH]c2ccccc2c1C#N)C(F)(F)F)c1cccc2c1OCC2 (centres unmarked) [2-[4-(2,3-Dihydrobenzofuran-7-yl)-2-hydroxy-4-methyl-2-trifluoromethylpentyl]-1H-indole-3-carbonitrile] | potent agonists | 
